Measurements from patent publication US7259186B2, “Salts of fenofibric acid and pharmaceutical formulations thereof” (Abbott Laboratories, priority 2002, dated 2007).
Where a name gives a salt, the structure may show the parent alone.

Experiment: Solid state photostability (ICH light exposure, HPLC recovery)
Format: physicochemical
Conditions: light 300–800 nm under ICH Guideline conditions; lack of degradation = recovery of 95% or greater
Excerpt: The terms “photostability” and “photostable” are used interchangeably herein and refer to a lack of degradation induced by exposure to light from 300–800 nm under the conditions described in the “Guideline for the Photostability Testing of New Drug Substances and Products” (International Conference on Harmonization. Federal Register 1997; […]:27115–22, which is herein incorporated by reference) (hereinafter referred to as the “Guidelines”). As used herein, the term of “lack of degradation” means a recovery of 95% or greater on average, preferably a recovery of 97% or greater on average and most preferably, a recovery of 99% or greater on average of the novel salts of the present invention after exposure to light from 300–800 nm under the conditions described in the Guidelines described above and pursuant to the assay described in Example 28.
About 1–4 mg of each of fenofibric acid form I, fenofibric acid form II, choline, diethanolamine, tromethamine, sodium, calcium, ethanolamine, meglumine, L-lysine, and piperazine was weighed into separate 4 mL clear glass vials. […]
The vials were sealed with PTFE lined caps, and divided into 2 groups with at least three replicates in each group. […] At the end of the light exposure, all samples and controls were removed and analyzed by HPLC using the conditions shown below in Table 6. […]

| photostability (in words) | SMILES |
| --- | --- |
| not photostable | CC(C)(Oc1ccc(C(=O)c2ccc(Cl)cc2)cc1)C(=O)O [Meglumine salt, reference compound] |
| not photostable | CC(C)(Oc1ccc(C(=O)c2ccc(Cl)cc2)cc1)C(=O)O [L-Lysine salt, reference compound] |
